The values that follow come from ChEMBL document CHEMBL1127215, “()-7-deazaaristeromycin lacking the hydroxymethyl substituent” (Bioorg Med Chem Lett, 1993).

In brackets after ≈: the same amount, converted by molar mass.

As usually defined, the IC50 is the concentration needed to halve the response being measured.

The target in assay [1] is Adenosylhomocysteinase (Homo sapiens, UniProt P23526). Nature of the assay: Tested for inhibitory concentration against S-adenosyl-homocysteine hydrolase.
The subject of assay [2] is Vero. Nature of the assay: Tested for antiviral activity against forest in vero cells. The conditions noted are these: Chlorocebus sabaeus. Format: functional.
Assay [3] has as its system Vero. The assay is described as follows: Tested for antiviral activity against Tacaribe in vero cells. It counts as functional. Conditions: Chlorocebus sabaeus.
Assay [4] concerns Vero. The assay is described as follows: Tested for antiviral activity against Sindbis in vero cells. Format: functional. The conditions noted are these: Chlorocebus sabaeus.
Assay [5] has as its system E6SM. The assay is described as follows: Tested for toxicity against morphology of E6SM cells. It counts as functional. The conditions noted are these: Homo sapiens.
Assay [6] has as its system HeLa. Nature of the assay: Tested for toxicity against morphology of HeLa cells. Format: functional. Conditions: Homo sapiens.
The test system of assay [7] is E6SM. The assay is described as follows: Tested for antiviral activity against HSV-2 (G) in E6SM cells. The conditions noted are these: Homo sapiens. Format: functional.
Assay [8] deals with MT4. The assay is described as follows: Tested for antiviral activity against HIV-2 (ROD) in MT-4 cells. Format: functional. Conditions: Homo sapiens.
Assay [9] relates to HEL. The assay is described as follows: Tested for anti-HCMV activity using AD-169 and Davis strains in HEL cells. Format: functional. The conditions noted are these: Homo sapiens.
In assay [10] the test system is HeLa. The assay is described as follows: Tested for antiviral activity against respiratory syncytial (long) in HeLa cells. Format: functional. The conditions noted are these: Homo sapiens.
Assay [11] deals with Vero. The assay is described as follows: Tested for antiviral activity against reo-1 in vero cells. Format: functional. Conditions: Chlorocebus sabaeus.
In assay [12] the test system is HEL. Nature of the assay: Tested for effect on HEL cells growth viability for anti-HCMV activity. Format: functional. Conditions: Homo sapiens.
Assay [13] has as its system E6SM. Nature of the assay: Tested for antiviral activity against HSV-1 (KOS) in E6SM cells. Format: functional. Conditions: Homo sapiens.
Assay [14] has as its system HeLa. Nature of the assay: Tested for antiviral activity against coxsackie B4 in HeLa cells. It counts as functional. Conditions: Homo sapiens.
For assay [15], the system named is Vero. The assay is described as follows: Tested for toxicity against morphology of vero cells. It counts as functional. Conditions: Chlorocebus sabaeus.
The test system of assay [16] is Vero. Nature of the assay: Tested for antiviral activity against parainfluenza 3 (VR-93) in vero cells. It counts as functional. The conditions noted are these: Chlorocebus sabaeus.
The test system of assay [17] is MT4. The assay is described as follows: Tested for toxicity against growth/viability of MT-4 cells. Format: functional. The conditions noted are these: Homo sapiens.
Assay [18] deals with Vero. The assay is described as follows: Tested for antiviral activity against coxsackie B4 in vero cells. It counts as functional. The conditions noted are these: Chlorocebus sabaeus.
Assay [19] has as its system E6SM. Nature of the assay: Tested for antiviral activity against TK-HSV-1 (B2006) in E6SM cells. Format: functional. The conditions noted are these: Homo sapiens.
The test system of assay [20] is Vero. The assay is described as follows: Tested for antiviral activity against Junin in vero cells. Format: functional. The conditions noted are these: Chlorocebus sabaeus.
In assay [21] the test system is MDCK. The assay is described as follows: Tested for toxicity against morphology of MDCK cells. It counts as functional. The conditions noted are these: Canis lupus familiaris.
The subject of assay [22] is MT4. Nature of the assay: Tested for antiviral activity against HIV-1 (IIIB/LAI) in MT-4 cells. It counts as functional. The conditions noted are these: Homo sapiens.

Chain of Adenosylhomocysteinase (P23526 whole entry): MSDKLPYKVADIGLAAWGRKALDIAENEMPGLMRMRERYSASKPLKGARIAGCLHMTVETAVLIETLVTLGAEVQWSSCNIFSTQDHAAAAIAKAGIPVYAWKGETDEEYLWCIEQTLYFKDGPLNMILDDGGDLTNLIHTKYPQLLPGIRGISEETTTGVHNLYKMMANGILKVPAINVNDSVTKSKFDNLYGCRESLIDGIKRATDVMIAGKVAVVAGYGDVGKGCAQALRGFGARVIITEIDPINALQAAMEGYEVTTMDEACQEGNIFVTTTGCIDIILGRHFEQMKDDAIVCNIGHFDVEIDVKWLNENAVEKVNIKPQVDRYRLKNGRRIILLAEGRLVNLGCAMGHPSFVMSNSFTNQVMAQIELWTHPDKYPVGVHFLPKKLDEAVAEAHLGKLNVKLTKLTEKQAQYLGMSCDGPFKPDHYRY

For `Nc1ncnc2c1ncn2[C@@H]1C=C(CO)[C@@H](O)[C@H]1O` [NEOPLANOCIN A], in assay [1], the IC50 amounted to 7.2 nM.
As for `Nc1ncnc2c1ccn2C1CCC(O)C1O` (stereo not given), the MIC50 was over 200 µg/mL in [2]; 64 µg/mL (≈ 273 µM) in assay [3]; over 200 µg/mL in assay [4]; over 200 µg/mL in [5]; over 200 µg/mL in assay [6]; over 200 µg/mL in assay [7]. Moreover, the MIC50 in [8] is over 130 µg/mL; in assay [9], 18 µg/mL (≈ 76.8 µM); in assay [10], over 100 µg/mL; in assay [11] it was over 200 µg/mL; in assay [12], 130 µg/mL (≈ 555 µM); in assay [13], over 200 µg/mL. Further, the MIC50 in [14] was over 200 µg/mL; in [15], over 200 µg/mL; in assay [16], 150 µg/mL (≈ 640 µM); in [17], over 130 µg/mL; in [18], over 200 µg/mL; in assay [19], over 200 µg/mL. The MIC50 was 84 µg/mL (≈ 359 µM) in assay [20], over 100 µg/mL in [21] and over 130 µg/mL in assay [22]. For the same compound, the IC50 in [1] is over 100000 nM.
`Nc1ccnc2c1ncn2[C@@H]1C[C@H](CO)[C@@H](O)[C@H]1O`: in assay [1], the midpoint of inhibition, the IC50, lay at 18 nM.
In assay [1], `Nc1ncnc2c1ncn2C[C@H](O)CO` [(S)-DHPA] showed an IC50 of 280 nM.
